# Measured values taken from ChEMBL document CHEMBL5608197, “Optimization of pyrazolopyridine 4-carboxamides with potent antimalarial activity for which resistance is associated with the P. falciparum transporter ABCI3” (Eur J Med Chem, 2024).
# Activity calls are given as the source filed them. The rule behind the calls is not given here.
# Columns and labels:
# [1] = molecular target: Voltage-gated inwardly rectifying potassium channel KCNH2 (Homo sapiens, UniProt Q12809); experiment: Inhibition of hERG expressed in CHO cells by patch clamp method; assay type: toxicity, cell-based
# [2] = molecular target: T1, CYP3A4 (Homo sapiens, UniProt P08684); experiment: Inhibition of CYP3A4 (unknown origin) at 10 uM relative to control; assay type: ADME
# [3] = molecular target: T2, CYP1A2 (Homo sapiens, UniProt P05177); experiment: Inhibition of CYP1A2 (unknown origin) at 1 uM relative to control; assay type: ADME
# T2 sequence (P05177 whole entry): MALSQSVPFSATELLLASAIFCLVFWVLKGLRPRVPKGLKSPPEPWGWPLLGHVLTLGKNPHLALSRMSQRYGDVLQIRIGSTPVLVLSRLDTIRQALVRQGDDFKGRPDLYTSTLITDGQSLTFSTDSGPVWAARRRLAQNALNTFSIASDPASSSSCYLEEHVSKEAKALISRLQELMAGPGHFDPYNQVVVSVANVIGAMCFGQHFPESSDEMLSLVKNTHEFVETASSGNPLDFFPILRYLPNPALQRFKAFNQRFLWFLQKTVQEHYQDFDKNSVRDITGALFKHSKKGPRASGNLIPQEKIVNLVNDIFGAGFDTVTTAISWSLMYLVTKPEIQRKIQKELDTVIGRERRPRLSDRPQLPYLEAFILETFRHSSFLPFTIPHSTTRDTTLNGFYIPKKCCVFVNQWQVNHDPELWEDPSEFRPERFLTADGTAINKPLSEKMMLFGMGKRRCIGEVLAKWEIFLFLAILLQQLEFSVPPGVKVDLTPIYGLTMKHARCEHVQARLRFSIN
# [4] = tested on: Plasmodium falciparum; experiment: Antiplasmodial activity against drug-resistant Plasmodium falciparum Dd2-B2 in 2x10^5 bulk culture selection assessed as concentration required to complete parasite killing measured on day 5 under initial selection drug pressure concentration of 3XEC50 by Minimum inoculum of resistance analysis; assay type: functional; conditions: time 5 day
# [5] = tested on: Plasmodium falciparum; experiment: Antiplasmodial activity against multidrug-resistant Plasmodium falciparum 7G8 infected in erythrocytes assessed as inhibition of parasite growth incubated for 72 hrs by [3H]hypoxanthine incorporation based microbeta counting analysis; assay type: functional, organism-based; conditions: 7G8, Erythrocyte
# [6] = tested on: Plasmodium falciparum; experiment: Antimalarial activity against asexual stage of Plasmodium falciparum 3D7 infected in erythrocytes assessed as parasite killing at 10XEC50 incubated for 48 hrs with compound renewal for every 24 hrs followed by drug removal and incubation for 48 hrs with CFDA-SE labelled fresh erythrocytes by Hoechst 33342 staining based two-color flow cytometry; assay type: functional, organism-based; conditions: Erythrocyte
# [7] = tested on: Plasmodium falciparum; experiment: Antiplasmodial activity against multidrug-resistant Plasmodium falciparum K1 infected in erythrocytes assessed as inhibition of parasite growth incubated for 72 hrs by [3H]hypoxanthine incorporation based microbeta counting analysis; assay type: functional, organism-based; conditions: K1, Erythrocyte
# [8] = Cytotoxicity against human HepG2 cells assessed as inhibition of cell growth incubated for 48 hrs by CellTiter-Glo luminescence assay; assay type: toxicity, cell-based
# [9] = molecular target: CYP2C19 (Homo sapiens, UniProt P33261); experiment: Inhibition of CYP2C19 (unknown origin) at 1 uM relative to control; assay type: ADME
# [10] = Intrinsic clearance in human liver microsomes at 1 uM measured for 60 mins by LC-MS/MS analysis; assay type: ADME, Microsome; conditions: read-out: CLH
# [11] = tested on: Plasmodium falciparum; experiment: Antiplasmodial activity against ring stage of Plasmodium falciparum 3D7 expressing ABCI3-HAreg assessed as inhibition of parasite proliferation incubated for 72 hrs in absence of ABCI3 inhibitor, GlcN by SYBR dye based flow cytometry; assay type: functional, organism-based; conditions: 3D7, 72 h
# [12] = Aqueous solubility of the compound in PBS buffer at pH 7.4 at 200 uM incubated for 2 hrs under shaking condition by miniaturized shake flask method; assay type: physicochemical
# [13] = tested on: Plasmodium falciparum; experiment: Antiplasmodial activity against Plasmodium falciparum Dd2-B2 assessed as inhibition of parasite growth incubated for 72 hrs by flow cytometry; assay type: functional, organism-based
# [14] = tested on: Plasmodium falciparum; experiment: (§1) Resistance ratio of EC90 for antiplasmodial activity against drug-resistant recrudescent Plasmodium falciparum Dd2-B2 in 2x10^7 bulk culture selection measured on day 15 under initial selection drug pressure concentration of 3XEC50 to EC90 for antiplasmodial activity against Plasmodium flaciparum Dd2 measured after 72 hrs; assay type: functional
# [15] = tested on: Plasmodium falciparum; experiment: Antiplasmodial activity against drug-resistant recrudescent Plasmodium falciparum Dd2-B2 in 2x10^7 bulk culture selection assessed as inhibition of parasite growth incubated for 72 hrs by flow cytometry; assay type: functional, organism-based
# [16] = molecular target: T2, CYP1A2; experiment: Inhibition of CYP1A2 (unknown origin) at 10 uM relative to control; assay type: ADME
# [17] = tested on: Plasmodium falciparum; experiment: Antiplasmodial activity against multidrug-resistant Plasmodium falciparum Dd2 harboring cyt b-I22L mutant infected in erythrocytes assessed as inhibition of parasite growth incubated for 72 hrs by [3H]hypoxanthine incorporation based microbeta counting analysis; assay type: functional, organism-based; conditions: Dd2, Erythrocyte
# [18] = tested on: Plasmodium falciparum; experiment: Antiplasmodial activity against Plasmodium falciparum Dd2 infected in erythrocytes assessed as inhibition of parasite growth incubated for 72 hrs by [3H]hypoxanthine incorporation based microbeta counting analysis; assay type: functional, organism-based; conditions: Dd2, Erythrocyte
# [19] = tested on: Plasmodium falciparum; experiment: Antiplasmodial activity against asexual blood stage of Plasmodium falciparum 3D7 assessed as inhibition of parasite growth incubated for 72 hrs by LDH assay; assay type: functional, organism-based; conditions: 3D7, 72 h
# [20] = tested on: Plasmodium falciparum; experiment: Antiplasmodial activity against ring stage of Plasmodium falciparum 3D7 expressing ABCI3-HAreg assessed as inhibition of parasite proliferation incubated for 72 hrs in presence of ABCI3 inhibitor, GlcN by SYBR dye based flow cytometry; assay type: functional, organism-based; conditions: 3D7, 72 h
# [21] = tested on: Plasmodium falciparum; experiment: as §1, with “EC50” for “EC90”; assay type: functional
# [22] = Lipophilicity, elogD of the compound in 1-Octanol/PBS at pH 7.4 at 7.5 uM incubated for 2 hrs by miniaturized shake flask method; assay type: physicochemical
# [23] = tested on: Plasmodium falciparum; experiment: Antiplasmodial activity against drug-resistant recrudescent Plasmodium falciparum Dd2-B2 in 2x10^5 bulk culture selection assessed as inhibition of parasite growth incubated for 72 hrs by flow cytometry; assay type: functional, organism-based
# [24] = molecular target: T3, CYP2C9 (Homo sapiens, UniProt P11712); experiment: Inhibition of CYP2C9 (unknown origin) at 1 uM relative to control; assay type: ADME
# [25] = molecular target: T3, CYP2C9; experiment: Inhibition of CYP2C9 (unknown origin) at 10 uM relative to control; assay type: ADME
# [26] = tested on: Plasmodium falciparum; experiment: Antiplasmodial activity against multidrug-resistant Plasmodium falciparum TM90-C2B infected in erythrocytes assessed as inhibition of parasite growth incubated for 72 hrs by [3H]hypoxanthine incorporation based microbeta counting analysis; assay type: functional, organism-based; conditions: Erythrocyte
# [27] = molecular target: T1, CYP3A4; experiment: Inhibition of CYP3A4 (unknown origin) at 1 uM relative to control; assay type: ADME
# [28] = tested on: Plasmodium falciparum; experiment: Antiplasmodial activity against multidrug-resistant Plasmodium falciparum NF54 infected in erythrocytes assessed as inhibition of parasite growth incubated for 72 hrs by [3H]hypoxanthine incorporation based microbeta counting analysis; assay type: functional, organism-based; conditions: NF54, Erythrocyte
# [29] = tested on: Plasmodium falciparum; experiment: Antiplasmodial activity against multidrug-resistant Plasmodium falciparum Dd2 harboring DHODH-C276F mutant infected in erythrocytes assessed as inhibition of parasite growth incubated for 72 hrs by [3H]hypoxanthine incorporation based microbeta counting analysis; assay type: functional, organism-based; conditions: Dd2, Erythrocyte
# [30] = Efflux ratio of permeability across basolateral to apical side over apical to basolateral side in human Caco-2 cells at pH 7.4; assay type: ADME, cell-based; conditions: Caco-2, pH 7.4
# [31] = tested on: Plasmodium falciparum; experiment: Antiplasmodial activity against multidrug-resistant Plasmodium falciparum Dd2 harboring CARL-I1139K mutant infected in erythrocytes assessed as inhibition of parasite growth incubated for 72 hrs by [3H]hypoxanthine incorporation based microbeta counting analysis; assay type: functional, organism-based; conditions: Dd2, Erythrocyte
# T1 sequence (P08684 whole entry): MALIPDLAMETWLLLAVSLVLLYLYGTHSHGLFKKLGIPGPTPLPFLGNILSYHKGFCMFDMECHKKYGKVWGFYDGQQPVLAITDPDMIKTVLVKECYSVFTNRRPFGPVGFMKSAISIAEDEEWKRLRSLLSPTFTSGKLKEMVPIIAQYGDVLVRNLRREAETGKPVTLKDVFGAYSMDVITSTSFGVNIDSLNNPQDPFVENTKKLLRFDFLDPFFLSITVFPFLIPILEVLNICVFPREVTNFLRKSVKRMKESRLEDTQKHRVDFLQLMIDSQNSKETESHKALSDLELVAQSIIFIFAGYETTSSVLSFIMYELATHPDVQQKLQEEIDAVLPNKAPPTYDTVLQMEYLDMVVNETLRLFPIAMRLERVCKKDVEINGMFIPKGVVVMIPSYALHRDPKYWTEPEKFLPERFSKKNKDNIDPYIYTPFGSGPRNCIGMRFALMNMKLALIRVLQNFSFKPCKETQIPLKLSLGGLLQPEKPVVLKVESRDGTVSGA
# T3 sequence (P11712 whole entry): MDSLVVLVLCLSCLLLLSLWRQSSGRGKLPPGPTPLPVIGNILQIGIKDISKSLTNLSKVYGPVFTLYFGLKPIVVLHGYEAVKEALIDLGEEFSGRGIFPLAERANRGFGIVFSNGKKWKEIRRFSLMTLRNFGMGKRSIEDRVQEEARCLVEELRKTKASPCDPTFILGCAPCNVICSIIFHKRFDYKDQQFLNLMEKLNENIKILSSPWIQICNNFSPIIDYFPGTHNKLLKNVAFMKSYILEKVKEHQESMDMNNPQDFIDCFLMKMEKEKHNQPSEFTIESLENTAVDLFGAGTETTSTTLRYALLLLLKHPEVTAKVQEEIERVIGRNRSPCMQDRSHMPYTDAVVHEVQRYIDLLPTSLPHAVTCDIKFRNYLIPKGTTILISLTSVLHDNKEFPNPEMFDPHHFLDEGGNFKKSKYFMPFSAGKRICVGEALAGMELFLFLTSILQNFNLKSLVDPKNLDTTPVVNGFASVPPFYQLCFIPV
# Sequence of Voltage-gated inwardly rectifying potassium channel KCNH2 (Q12809 whole entry): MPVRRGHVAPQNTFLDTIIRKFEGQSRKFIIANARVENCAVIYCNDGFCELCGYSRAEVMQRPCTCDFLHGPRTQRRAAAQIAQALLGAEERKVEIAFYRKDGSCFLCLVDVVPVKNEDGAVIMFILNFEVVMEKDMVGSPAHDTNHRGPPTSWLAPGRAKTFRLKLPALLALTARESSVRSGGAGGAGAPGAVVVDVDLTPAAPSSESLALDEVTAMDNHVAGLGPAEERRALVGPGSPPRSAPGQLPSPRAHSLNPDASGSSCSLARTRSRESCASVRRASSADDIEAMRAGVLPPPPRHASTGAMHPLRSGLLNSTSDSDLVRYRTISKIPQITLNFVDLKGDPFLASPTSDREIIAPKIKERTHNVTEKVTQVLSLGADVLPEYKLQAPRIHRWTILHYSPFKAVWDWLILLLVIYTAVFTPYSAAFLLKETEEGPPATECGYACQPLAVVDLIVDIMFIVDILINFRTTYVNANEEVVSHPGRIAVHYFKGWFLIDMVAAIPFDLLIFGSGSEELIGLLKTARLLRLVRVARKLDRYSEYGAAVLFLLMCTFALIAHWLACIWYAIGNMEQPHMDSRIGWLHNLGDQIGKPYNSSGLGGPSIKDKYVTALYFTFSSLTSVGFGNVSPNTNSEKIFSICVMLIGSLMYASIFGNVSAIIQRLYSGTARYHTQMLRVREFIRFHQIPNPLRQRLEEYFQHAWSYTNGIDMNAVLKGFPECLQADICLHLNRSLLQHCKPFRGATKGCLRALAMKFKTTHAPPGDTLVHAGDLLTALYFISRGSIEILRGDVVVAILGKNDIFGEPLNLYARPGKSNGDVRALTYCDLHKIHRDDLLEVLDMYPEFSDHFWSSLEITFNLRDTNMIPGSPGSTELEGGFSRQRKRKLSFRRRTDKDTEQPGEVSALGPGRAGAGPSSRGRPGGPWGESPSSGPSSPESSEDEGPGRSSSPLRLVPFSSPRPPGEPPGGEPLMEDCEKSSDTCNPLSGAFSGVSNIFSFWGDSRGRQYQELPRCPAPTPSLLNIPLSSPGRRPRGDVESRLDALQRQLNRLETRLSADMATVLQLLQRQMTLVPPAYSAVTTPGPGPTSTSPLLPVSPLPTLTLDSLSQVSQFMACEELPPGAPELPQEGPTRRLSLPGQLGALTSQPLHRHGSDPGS
# Sequence of CYP2C19 (P33261 whole entry): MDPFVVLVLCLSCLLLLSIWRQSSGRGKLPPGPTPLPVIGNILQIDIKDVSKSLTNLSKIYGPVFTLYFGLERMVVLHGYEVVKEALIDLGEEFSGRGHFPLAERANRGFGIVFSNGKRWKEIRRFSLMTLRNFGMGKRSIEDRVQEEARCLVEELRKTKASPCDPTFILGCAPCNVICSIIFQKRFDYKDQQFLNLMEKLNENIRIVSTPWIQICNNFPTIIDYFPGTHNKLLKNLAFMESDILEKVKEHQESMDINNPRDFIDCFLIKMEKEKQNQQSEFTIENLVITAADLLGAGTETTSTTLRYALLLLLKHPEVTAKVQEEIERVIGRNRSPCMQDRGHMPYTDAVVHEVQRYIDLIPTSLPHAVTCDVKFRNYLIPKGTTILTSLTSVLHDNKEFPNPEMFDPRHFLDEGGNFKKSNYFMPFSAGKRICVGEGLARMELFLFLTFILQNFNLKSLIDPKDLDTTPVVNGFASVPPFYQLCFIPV
compound,measurement,setting,value
Cc1nn(C(C)(C)C)c2nc(C3CC3)cc(C(=O)N3CCOc4ccncc43)c12,EC50,[1],16700 nM
same,inhibition at 10 µM,[2],90.5%
same,inhibition at 1 µM,[3],18%
same,Activity,[4],28 nM
same,EC50,[5],8 nM
same,Activity,[6],Active
same,EC50,[7],9 nM
same,CC50 at 48 h,[8],4810 nM
same,inhibition at 1 µM,[9],3.6%
same,microsomal CLint at 1 µM,[10],116 µL/min/mg
same,EC50,[11],2.7 nM
same,"solubility thermodynamic at 2 h, 200 µM",[12],69 µM
same,EC50,"[13]; Dd2-B2, 72 h",6.8 nM
same,EC90,"[13]; Dd2-B2, time 72 hrs",12.3 nM
same,Ratio,[14],5
same,EC50,"[15]; Dd2-B2, 72 h",37.5 nM
same,EC90,"[15]; Dd2-B2, time 72 hrs",68.9 nM
same,inhibition at 10 µM,[16],55.1%
same,EC50,[17],6 nM
same,EC50,[18],4 nM
same,EC50,[19],16 nM
same,EC50,[20],0.8 nM
same,Ratio EC50,[21],5
same,"logD at 2 h, 7.5 µM",[22],4.1
same,EC50,"[23]; Dd2-B2, 72 h",28.3 nM
same,EC90,"[23]; Dd2-B2, time 72 hrs",68.3 nM
same,inhibition at 1 µM,[24],12.8%
same,inhibition at 10 µM,[25],57.5%
same,EC50,[26],7 nM
same,inhibition at 1 µM,[27],66.2%
same,EC50,[28],3 nM
same,EC50,[29],7 nM
same,efflux ratio,[30],1.4
same,EC50,[31],5 nM
